Values joined by “and” are separate entries in the source; they are usually repeats but may differ in a detail not shown here. Identical values can stand only once. Marks after values point to notes of the source that are not given here.
How the values were obtained:
[1] = system: apomorphine-induced emesis; assay: Emetic challenge study (apomorphine-induced emesis) in beagle dogs; assay type: in vivo, beagle dog; settings: for Total No. Emetic Episodes: apomorphine 0.1 mg/kg iv 2 hours later, five dogs, APO control 28
Protocol: Over the five (5) weeks of the study, each animal receives each of the treatments, but only one per week. The purpose of this study is to determine if tradipitant suppresses apomorphine-induced emesis.
The mid dose of tradipitant is the approximate half-log interval between the low and high doses.
All animals are dosed over a period of five (5) weeks, with each dog receiving one of five different treatments on each day of dosing.
All dogs are fasted overnight prior to each treatment day and then fed approximately one (1) hour after oral dosing (approximately one (1) hour prior to administration of apomorphine). Individual doses are adjusted weekly for changes in body weight.
The dose regimen consists of a 5×5 Latin square design, in which each subject receives 1 dose or dose combination per week (6 day washout) as shown in Table 3 below.

NK-1 receptor = target: T1, NK-1 receptor (Meriones unguiculatus, UniProt Q5DUB1); assay: NK-1 agonist (GR73632, icv)-induced foot-tapping behavior in gerbils; assay type: in vivo; settings: gerbil, 0.1 mg/kg po
T1 construct: centrally acting NK-1 receptor antagonist in vivo in the gerbil; from tissue; host or cells: brain of living Mongolian gerbils
Protocol: Male Mongolian gerbils (Harlan Sprague Dawley, Indianapolis, IN) weighing 26 to 40 grams are administered the selective neurokinin-1 receptor agonist GR73632 (3 pmol) via direct, vertical, free-hand intracerebroventricular (icy) injection to a depth of 4.5 mm below bregma with a cuffed 27-gauge needle attached to a 50 μl Hamilton syringe. Immediately after injection, animals are placed individually into isolated chambers with pressure-sensitive velocimeter platform floors (San Diego Instruments acoustic startle apparatus) that detect and quantify vibration. The San Diego Instruments “SR” DOS-based computer program is used on a PC to record the number of foot-taps over the following 6 to 10 minutes, beginning 30 seconds after the floor is lightly tapped. […] The total number and average intensity of events over the duration is determined. Total number of taps is analyzed with one-way ANOVA and post-hoc Dunnett's test using JMP statistical software.
A dose-response curve (with doses of 0.3, 1, 3 and 10 pmols, icy) is initially generated with the NK-1 agonist GR73632.
NK-1 antagonists are tested for their ability to attenuate GR73632-induced foot tapping. NK-1 antagonists are administered (po) via oral feeding tube at doses and time points specified in each experiment. […]
NK-1 antagonists are administered at multiple doses (at least 3; one dose per animal) and response to GR73632 is measured. […]

[2] = Plasma concentration 2 hours post-dose in beagle dogs; assay type: in vivo; settings: Dog 1-5
Protocol: All animals are dosed over a period of five (5) weeks, with each dog receiving one of five different treatments on each day of dosing. […] In cases where apomorphine is administered alone, without prior treatment with tradipitant or aprepitant, apomorphine is given at approximately the same time as when given in combination with tradipitant or aprepitant.

NK-3 receptor = target: T2, NK-3 receptor (Homo sapiens, UniProt P29371); assay: NK-3 receptor inhibition; assay type: binding
T2 sequence (P29371 1-465): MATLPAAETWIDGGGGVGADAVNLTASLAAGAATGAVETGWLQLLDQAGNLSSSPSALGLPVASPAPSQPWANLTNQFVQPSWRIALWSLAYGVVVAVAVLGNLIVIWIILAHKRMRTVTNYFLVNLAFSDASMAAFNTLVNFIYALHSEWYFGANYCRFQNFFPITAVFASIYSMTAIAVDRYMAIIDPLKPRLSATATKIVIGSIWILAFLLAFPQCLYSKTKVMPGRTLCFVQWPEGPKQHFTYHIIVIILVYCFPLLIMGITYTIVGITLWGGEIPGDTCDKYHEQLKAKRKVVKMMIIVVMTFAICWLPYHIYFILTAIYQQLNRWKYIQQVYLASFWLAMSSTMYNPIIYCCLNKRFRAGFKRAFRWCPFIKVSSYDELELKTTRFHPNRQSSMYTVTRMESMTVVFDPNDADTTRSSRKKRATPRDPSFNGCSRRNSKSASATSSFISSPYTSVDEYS

T1 sequence (Q5DUB1 whole entry): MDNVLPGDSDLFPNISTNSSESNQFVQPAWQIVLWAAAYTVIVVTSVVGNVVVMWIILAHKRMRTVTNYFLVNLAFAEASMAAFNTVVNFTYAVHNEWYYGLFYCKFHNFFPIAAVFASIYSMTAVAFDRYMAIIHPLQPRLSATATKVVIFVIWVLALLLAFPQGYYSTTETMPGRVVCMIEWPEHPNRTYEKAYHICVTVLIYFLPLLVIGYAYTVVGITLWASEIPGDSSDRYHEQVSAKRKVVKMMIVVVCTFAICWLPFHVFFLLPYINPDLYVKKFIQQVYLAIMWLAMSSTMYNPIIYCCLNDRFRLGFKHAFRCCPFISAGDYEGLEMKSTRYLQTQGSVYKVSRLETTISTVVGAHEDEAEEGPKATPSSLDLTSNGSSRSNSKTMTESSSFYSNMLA

time after administration up to which foot-tapping behavior is significantly inhibited (NK-1 receptor): up to 7 hours
inhibition at NK-3 receptor (NK-3 receptor): no significant inhibition
Structure (SMILES): O=C(c1ccccc1Cl)c1cccnc1-c1nnn(Cc2cc(C(F)(F)F)cc(C(F)(F)F)c2)c1-c1ccncc1 [Tradipitant, {2-[1-(3,5-bistrifluoromethylbenzyl)-5-pyridin-4-yl-1H-[1,2,3]triazol-4-yl]-pyridin-3-yl}-(2-chlorophenyl)-methanone]
Total No. Emetic Episodes ([1]; 0.3 mg/kg oral): 1**
Total No. Emetic Episodes ([1]; 1.0 mg/kg oral): 1**
Total No. Emetic Episodes ([1]; 3.0 mg/kg oral): 1**
effect against apomorphine-induced emesis ([1]; each dose tested (0.3, 1.0, and 3.0 mg/kg)): effective
Concentration of tradipitant in plasma, individual dogs ([2]; 0.3 mg/kg oral): 90.93 ng/mL and 83.38 ng/mL and 22.59 ng/mL and 51.20 ng/mL and 41.33 ng/mL
Concentration of tradipitant in plasma, individual dogs ([2]; 1.0 mg/kg oral): 240.84 ng/mL and 100.97 ng/mL and 61.56 ng/mL and 175.58 ng/mL and 86.49 ng/mL
Concentration of tradipitant in plasma, individual dogs ([2]; 3.0 mg/kg oral): 316.20 ng/mL and 682.91 ng/mL and 119.79 ng/mL and 122.73 ng/mL and 256.58 ng/mL

From patent US20240299373A1, “IMPROVED USE OF TRADIPITANT IN MOTION SICKNESS” (Vanda Pharmaceuticals Inc., priority 2023, published 2024)
